Measured values reported in the supplement of paper PMC10920090.

Tests used:
MDA-MB-231 [1] = assay: drug sensitivity score (DSS), cytotoxicity CellTox Green; higher = more cytotoxic; extreme values may be limits of the assay; details: 72 h
MDA-MB-231 [2] = assay: drug sensitivity score (DSS), cell viability CellTiter-Glo; higher = more sensitive; extreme values may be limits of the assay; details: 72 h
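Throughout, for drug sensitivity score (DSS), cytotoxicity CellTox Green: DSS summarises each dose–response curve by combining IC50, EC50, maximal inhibition and efficacy across drug concentrations.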

| SMILES | drug sensitivity score (MDA-MB-231 [1]; shRNA: shPPFIA1_1) | drug sensitivity score (MDA-MB-231 [1]; shRNA: shScramble) | drug sensitivity score (MDA-MB-231 [2]; shRNA: shPPFIA1_1) | drug sensitivity score (MDA-MB-231 [2]; shRNA: shScramble) |
| --- | --- | --- | --- | --- |
| O=C1CCC(N2C(=O)c3ccccc3C2=O)C(=O)N1 (configuration not stated) [Thalidomide] | 0 DSS | 0 DSS | 0 DSS | 0 DSS |
| S=P(N1CC1)(N1CC1)N1CC1 [Thio-TEPA] | 0 DSS | 0 DSS | 0.9 DSS | 0.9 DSS |
| Nc1nc2[nH]cnc2c(=S)[nH]1 [Thioguanine] | 0 DSS | 0 DSS | 5.1 DSS | 10.2 DSS |
| O=c1sn(-c2cccc3ccccc23)c(=O)n1Cc1ccccc1 [Tideglusib] | 0 DSS | 0 DSS | 0 DSS | 0 DSS |
| Cn1cncc1[C@@](N)(c1ccc(Cl)cc1)c1ccc2c(c1)c(-c1cccc(Cl)c1)cc(=O)n2C [Tipifarnib] | 5.9 DSS | 0.8 DSS | 3.5 DSS | 4 DSS |
| O=C1NC(=O)[C@@H](c2cn3c4c(cccc24)CCC3)[C@@H]1c1c[nH]c2ccccc12 [Tivantinib] | 1.7 DSS | 0.5 DSS | 4.8 DSS | 3.8 DSS |
| COc1cc2nccc(Oc3ccc(NC(=O)Nc4cc(C)on4)c(Cl)c3)c2cc1OC [Tivozanib] | 3.3 DSS | 0 DSS | 0 DSS | 1.9 DSS |
| C[C@@H]1CCN(C(=O)CC#N)C[C@@H]1N(C)c1ncnc2[nH]ccc12 [Tofacitinib] | 0.9 DSS | 0.9 DSS | 0 DSS | 0 DSS |
| CC[C@@]1(O)C(=O)OCc2c1cc1n(c2=O)Cc2cc3c(CN(C)C)c(O)ccc3nc2-1 [Topotecan] | 0.8 DSS | 1.5 DSS | 0 DSS | 5.8 DSS |
| CN(C)CCOc1ccc(/C(=C(/CCCl)c2ccccc2)c2ccccc2)cc1 [Toremifene] | 4.6 DSS | 1.8 DSS | 2.4 DSS | 1.3 DSS |
| CC(C)C[C@@H](C(=O)N[C@H](C(=O)OC1CCCC1)c1ccccc1)[C@H](O)C(=O)NO [Tosedostat] | 12.4 DSS | 7.8 DSS | 4.2 DSS | 2 DSS |
| Cc1cc(Nc2cc(N3CCN(C)CC3)nc(Sc3ccc(NC(=O)C4CC4)cc3)n2)n[nH]1 [Tozasertib] | 1.6 DSS | 0.3 DSS | 0 DSS | 3 DSS |
| CC1=C(/C=C/C(C)=C/C=C/C(C)=C/C(=O)O)C(C)(C)CCC1 [Tretinoin] | 0 DSS | 0 DSS | 0 DSS | 0 DSS |
| NC(=S)N/N=C/c1ncccc1N [Triapine] | 0 DSS | 0 DSS | 0 DSS | 1.2 DSS |
| O=C(CCCCCCC(=O)Nc1ccc([C@H]2O[C@@H](CSc3nc(-c4ccccc4)c(-c4ccccc4)o3)C[C@@H](c3ccc(CO)cc3)O2)cc1)NO [Tubacin] | 7.2 DSS | 2.2 DSS | 7.3 DSS | 5 DSS |
| CN1CCc2c(c3ccccc3n2Cc2ccc(C(=O)NO)cc2)C1 [Tubastatin A] | 0.1 DSS | 0 DSS | 0 DSS | 1 DSS |
| CN[C@@H]1C[C@H]2O[C@@](C)([C@@H]1OC)n1c3ccccc3c3c4c(c5c6ccccc6n2c5c31)C(=O)N[C@H]4O [UCN-01] | 16.6 DSS | 12.2 DSS | 17 DSS | 21.4 DSS |

| SMILES | drug sensitivity score (MDA-MB-231 [1]; shRNA: shPPFIA1_1) | drug sensitivity score (MDA-MB-231 [1]; shRNA: shScramble) | drug sensitivity score (MDA-MB-231 [2]; shRNA: shPPFIA1_1) | drug sensitivity score (MDA-MB-231 [2]; shRNA: shScramble) |
| --- | --- | --- | --- | --- |
| COC(=O)c1ccc2c(c1)[nH]c1ncnc(NCCCN3CCCCC3)c12 [UM729] | 0 DSS | 0 DSS | 0 DSS | 0 DSS |
| O=C(O)CSc1cc(NS(=O)(=O)c2ccc(Br)cc2)c2ccccc2c1O [UMI-77] | 8 DSS | 18.7 DSS | 3.2 DSS | 10.8 DSS |
| COc1cc2c(NC3CCN(C(C)C)CC3)nc(C3CCCCC3)nc2cc1OCCCN1CCCC1 [UNC0638] | 7 DSS | 6.8 DSS | 8.3 DSS | 6.3 DSS |
| COc1cc2c(NC3CCN(C(C)C)CC3)nc(N3CCC(F)(F)CC3)nc2cc1OCCCN1CCCC1 [UNC0642] | 3 DSS | 0.5 DSS | 3.5 DSS | 3.1 DSS |
| O=C(c1ccc(C(=O)N2CCC(N3CCCC3)CC2)c(Nc2ccccc2)c1)N1CCC(N2CCCC2)CC1 [UNC1215] | 0 DSS | 0 DSS | 0.4 DSS | 0.3 DSS |
| CCCCNc1ncc(C(=O)NCc2ccc(-n3ccnc3)cc2)c(NC2CCC(O)CC2)n1 (configuration not stated) [UNC2881] | 0 DSS | 0 DSS | 0 DSS | 0.5 DSS |
| NC(=O)c1cccc(-c2cccc(OC(=O)NC3CCCCC3)c2)c1 [URB597] | 0 DSS | 0 DSS | 0.2 DSS | 0 DSS |
| CC(C)Nc1cc(-c2c[nH]c(C(=O)N[C@H](CO)c3cccc(Cl)c3)c2)c(Cl)cn1 [Ulixertinib] | 0 DSS | 2.7 DSS | 0 DSS | 2.1 DSS |
| Cn1ncc(Cl)c1-c1cc(C(=O)N[C@H](CN)Cc2ccc(F)c(F)c2)oc1Cl [Uprosertib] | 0 DSS | 0 DSS | 0 DSS | 0 DSS |
| Oc1ncc(N(CCCl)CCCl)c(O)n1 [Uramustine] | 0 DSS | 0 DSS | 0 DSS | 0 DSS |
| CS(=O)(=O)c1ccc(-c2cnc(N)c(C(=O)Nc3ccccc3)n2)cc1 [VE-821] | 0 DSS | 0 DSS | 0 DSS | 0 DSS |
| O=C(O)CC1CC(c2ccccc2)=NO1 (configuration not stated) [VGX-1027] | 0 DSS | 0 DSS | 0 DSS | 0 DSS |
| CNC(=O)c1ccccc1Nc1cc(Nc2ccc(N3CCOCC3)cc2OC)ncc1C(F)(F)F [VS-4718] | 0 DSS | 0 DSS | 0 DSS | 0 DSS |
| O=c1ncn2nc(Sc3ccc(F)cc3F)ccc2c1-c1c(Cl)cccc1Cl [VX 745] | 0 DSS | 0 DSS | 0 DSS | 0 DSS |
| CCCC(CCC)C(=O)O [Valproic acid] | 0 DSS | 0 DSS | 0 DSS | 0 DSS |
| CCCCC(=O)OCC(=O)[C@]1(O)Cc2c(O)c3c(c(O)c2[C@@H](O[C@H]2C[C@H](NC(=O)C(F)(F)F)[C@H](O)[C@H](C)O2)C1)C(=O)c1c(OC)cccc1C3=O [Valrubicin] | 0 DSS | 0 DSS | 0.8 DSS | 7 DSS |
